Measurements: patent US8664384B2, “N6-(ferrocenmethyl)quinazolin-2,4,6-triamina (H2) and the derivatives and prodrugs thereof as antileishmanial, antiprotozoal, antiparasitic and antimicrobial agents” (priority 2010, dated 2014)
Like-named read-outs stand apart in the source and are kept apart here.

Assays:
[1] = test system: Leishmania mexicana MNYC/BZ/62/M379 reference strain; format: cell-based
Procedure: FIG. 3: A plot showing the H2 prodrug activity toward the in vitro growth of Leishmania Mexicana. To obtain a higher sensitivity in this experiment, the MNYC/BZ/62/M379 reference strain, which has a higher sensitivity to H2 than does MHOM/MX/01/Tab3, was used. The number of parasites/ml was determined at 72 hours of incubation using 100 mM of each compound in four replicates. The culture conditions were the same as described in FIG. 1.
The following is a list of Leishmania mexicana growth inhibition activity by the prodrugs compared to H2 and a control.

[2] = test system: Leishmania mexicana strain MHOM/MX/01/Tab3; test: in vitro growth of Leishmania mexicana, parasite count in Neubauer chamber; format: cell-based
Procedure: FIG. 1: The biological activity of H2 toward the in vitro growth of Leishmania mexicana strain MHOM/MX/01/Tab3. A growth curve collected after 72 hours of parasite cultivation in a Neubauer chamber in the presence of the H2 is shown. The H2 concentration is shown on the horizontal axis, whereas the number of parasites/ml is shown on the vertical axis. The experiment was performed at room temperature using high-glucose Dulbecco's Modified Eagle's Medium with 10% fetal bovine serum.
FIG. 2: Photograph obtained using an inverted microscope showing the inhibition of Leishmania growth by H2. The parasite culture shown in the left image was grown under the same conditions described in FIG. 1 but with the absence of H2.
At greater than 5 μg/ml, H2 is lethal to Leishmania in less than 5 hours. The in vitro effect is apparent at 30 minutes after application. The parasite structure is modified such that it loses its characteristic form, loses refringence, becomes spherical, and is incapable of multiplying. H2 has a CL50 of 2.6 μm/ml for the Leishmania mexicana MHOM/MX/01/Tab3 strain. The mechanism of cellular damage could not be identified by means of annexin for concentrations greater than 10 μg/ml; it is thought that a necrosis process rather than apoptosis is likely involved.

[3] = test system: Leishmania mexicana cultures (Tab3 or M379 strain); test: elimination of parasites in Leishmania mexicana cultures; format: cell-based; details: 3 μg/ml; 10^6 parasites/ml; Dulbecco's medium with 4.5 mg/mL glucose and 10% fetal bovine serum
Procedure: H2 (3 μg/ml) eliminates more than 90% of the parasites in Leishmania mexicana cultures (Tab3 or M379 strain) with 10^6 parasites/ml in Dulbecco's medium modified with 4.5 mg/mL glucose and 10% fetal bovine serum.

murine cells = test: in vitro cytotoxicity against murine cells; format: cell-based; details: in vitro studies
From the text: (§1) Cytotoxicity against murine cells was not found in in vitro studies or in vivo studies using oral, parenteral, or dermal administration in mice.

mice = test: in vivo toxicity studies in mice; details: oral, parenteral, or dermal administration in mice
From the text: as §1

[4] = test system: microorganisms, parasites, and protozoa, including members of the Leishmania genus; test: antimicrobial, antiparasitic and leishmanicide activity (general statement); format: cell-based; details: from 0.1 μg/ml to greater than 100 μg/ml
Procedure: The N^6-(ferrocenmethyl)quinazoline-2,4,6-triamine compound, which we refer to as H2, presents antimicrobial, antiparasitic, and leishmanicide activity from 0.1 μg/ml to greater than 100 μg/ml. H2 can be used in the treatment of infections caused by microorganisms, parasites, and protozoa, including members of the Leishmania genus in particular.

| Compound | % of Leishmania Growth Inhibition [1] [%] | effect on parasite culture (inverted microscope, FIG. 2) ([2]; 1 μg/ml H2, conditions of FIG. 1) | time until lethal to Leishmania ([2]; H2 at greater than 5 μg/ml) | CL50 ([2]; Leishmania mexicana MHOM/MX/01/Tab3 strain) [μm/ml] | speed of killing the total amount of parasites compared to meglumine antimoniate, metronidazole or hydroxyurea ([2]; faster than previously described compounds, at doses ten-fold lower or less) | time at which the in vitro effect is apparent after application ([2]; in vitro) [min] | parasites eliminated [3] | % of Leishmania Growth Inhibition ([1]; 72 hours of incubation, 100 mM of each compound, four replicates, M379 strain (FIG. 3)) [%] | cytotoxicity against murine cells (murine cells) | cytotoxicity in vivo (mice) | concentration at which antimicrobial, antiparasitic, and leishmanicide activity is presented [4] [µg/mL] |
| --- | --- | --- | --- | --- | --- | --- | --- | --- | --- | --- | --- |
| [Fe+2].c1cc[cH-]c1.c1ccc(NC[c-]2cccc2)cc1 [FBC, N-(ferrocenmethyl)aniline, reference compound] | 32 | – | – | – | – | – | – | – | – | – | – |
| N^6-(ferrocenmethyl)quinazoline-2,4,6-triamine [Compound H2] | – | clear lack of growth and destruction of the parasite | less than 5 hours | 2.6 | up to 10 fold | 30 | more than 90% | 100 | not found | not found | ≥ 0.1 |
